Experimental data reported in PubChem BioAssay AID1996.
In brackets after ≈: the same amount, converted by molar mass.

Conditions: buffer; pH 7.4; 200.0 µM

Which solubility kinetic does the source give for `Cn1c(=O)c2c(ncn2CC(=O)OCCCC(=O)c2ccc(Br)cc2)n(C)c1=O` here?
Its solubility kinetic is 28 µg/mL (≈ 60.4 µM).

For `Cc1ccc(C(=O)c2coc3ccc(O)c(CN(C)C)c23)cc1.Cl`, which solubility kinetic is on record?
Its solubility kinetic is 48 µg/mL.

For `O=C1CC(c2ccco2)Sc2ccccc2N1` (stereo not given), which solubility kinetic is on record?
The solubility kinetic was greater than 36.8 µg/mL.

Which solubility kinetic does the source give for `O=C(Nc1ccc(Br)cc1)c1ccc2ncsc2c1` here?
The solubility kinetic was 7.9 µg/mL (≈ 23.7 µM).

Which solubility kinetic does the source give for `COCCCNC(=O)c1ccc(C2SCC(=O)N2Cc2ccco2)cc1` (stereo not given) here?
Its solubility kinetic is 52.1 µg/mL (≈ 139 µM).

Which solubility kinetic does the source give for `Cn1cccc1C(=O)C(=O)Nc1ccccc1C(F)(F)F` here?
The solubility kinetic was 5 µg/mL (≈ 16.9 µM).

For `Cc1c(C=O)c2ccccc2n1CC(=O)O`, which solubility kinetic is on record?
The solubility kinetic was greater than 32.6 µg/mL.

With `Cc1nnc(SCC(=O)NC23CC4CC(CC(C4)C2)C3)s1` as the compound, how does the solubility kinetic read?
The solubility kinetic was greater than 48.5 µg/mL.

With `O=C(NC1CCCC1)c1cc(-c2cccc(Cl)c2)on1` as the compound, how does the solubility kinetic read?
The solubility kinetic was 1.5 µg/mL (≈ 5.16 µM).

With `COc1ccc(OCC(O)CN2CCCC2)cc1` (stereo not given) as the compound, how does the solubility kinetic read?
The solubility kinetic was 30.7 µg/mL (≈ 122 µM).

For `CC(OC(=O)c1ccccc1Oc1ccccc1)C(=O)NC1CC1` (stereo not given), which solubility kinetic is on record?
The solubility kinetic was greater than 48.8 µg/mL.

With `COc1ccc2[nH]c(C(=O)Nc3ccc(F)cc3Br)cc2c1` as the compound, how does the solubility kinetic read?
Its solubility kinetic is less than 0.4 µg/mL.

Which solubility kinetic does the source give for `COc1ccccc1NS(=O)(=O)c1ccc(N2CCOCC2)c(N)c1` here?
The solubility kinetic was 5.1 µg/mL (≈ 14 µM).

With `C=CCNC(=O)[C@H]1N2C(=O)c3ccccc3C2SC1(C)C` (stereo not given in full) as the compound, how does the solubility kinetic read?
Its solubility kinetic is greater than 45.4 µg/mL.

Which solubility kinetic does the source give for `Nc1ccn(C2CC(O)C(CO)O2)c(=O)n1` (stereo not given) here?
Its solubility kinetic is greater than 34.1 µg/mL.

For `O=C(NC1CCOc2ccccc21)c1ccccn1` (stereo not given), which solubility kinetic is on record?
Its solubility kinetic is 36.1 µg/mL (≈ 142 µM).

For `CCOC(=O)C1CCCN(C(=O)COC(=O)c2cccs2)C1` (stereo not given), which solubility kinetic is on record?
The solubility kinetic was 47.6 µg/mL (≈ 146 µM).

With `Fc1ccc(-c2nc(-c3cccs3)no2)cc1` as the compound, how does the solubility kinetic read?
The solubility kinetic was less than 0.3 µg/mL.

Which solubility kinetic does the source give for `COc1ccc(N2CCN(C(=O)c3cccc(NS(=O)(=O)c4cccc(F)c4)c3)CC2)cc1` here?
The solubility kinetic was 52.8 µg/mL (≈ 112 µM).

For `COc1ccc(C2=COc3ccccc3C(=O)N2)cc1`, which solubility kinetic is on record?
The solubility kinetic was 11.4 µg/mL (≈ 42.7 µM).

For `CN(C(=O)Nc1cnccc1C(F)(F)F)C1CCCCC1`, which solubility kinetic is on record?
The solubility kinetic was 41.1 µg/mL (≈ 136 µM).

Which solubility kinetic does the source give for `CNC(=O)CSc1nnc(-c2ccco2)n1-c1ccccc1` here?
Its solubility kinetic is greater than 47.2 µg/mL.

For `Cc1ccccc1NC(=O)N1CCN(C/C=C/c2ccccc2)CC1`, which solubility kinetic is on record?
Its solubility kinetic is greater than 50.3 µg/mL.

With `C[C@H](NC(=O)Cc1cccc2ccccc12)C(=O)N1CCOCC1` as the compound, how does the solubility kinetic read?
Its solubility kinetic is greater than 49 µg/mL.

Which solubility kinetic does the source give for `CCN(CC)CCC(=O)c1ccc(F)cc1.Cl` here?
The solubility kinetic was greater than 39 µg/mL.

With `CCN1CCN(Cc2nnc(-c3ccc(C)cc3)o2)CC1` as the compound, how does the solubility kinetic read?
The solubility kinetic was greater than 43 µg/mL.

With `O=C(Nc1nc2ccccc2s1)Nc1ccc(F)cc1F` as the compound, how does the solubility kinetic read?
Its solubility kinetic is less than 0.2 µg/mL.

With `COC(c1ccccc1)(c1ccccc1)C(Oc1nccc(C)n1)C(=O)O` (stereo not given) as the compound, how does the solubility kinetic read?
Its solubility kinetic is 51 µg/mL (≈ 140 µM).

Which solubility kinetic does the source give for `COc1ccc(C(=O)COc2ncnc3cc(Cl)ccc23)cc1` here?
The solubility kinetic was less than 0.4 µg/mL.

With `CC1=C(C(=O)OC(C)(C)C)C(c2cccc3ccccc23)NC(=O)N1` (stereo not given) as the compound, how does the solubility kinetic read?
Its solubility kinetic is less than 0.4 µg/mL.

With `O=C(COc1ccccc1)Nc1c(Cl)ccc2nsnc12` as the compound, how does the solubility kinetic read?
Its solubility kinetic is 4.7 µg/mL (≈ 14.7 µM).

With `COc1ccc(NC(=O)CCC(=O)c2cccs2)cc1Cl` as the compound, how does the solubility kinetic read?
Its solubility kinetic is 6.5 µg/mL (≈ 20.1 µM).

With `CC1CCCCC1NC(=O)CSc1nc2ccccc2[nH]1` (stereo not given) as the compound, how does the solubility kinetic read?
The solubility kinetic was 37.5 µg/mL (≈ 124 µM).

With `CCc1nc2ccccc2c(C(=O)OCC(=O)NC2CCCC2)c1C` as the compound, how does the solubility kinetic read?
Its solubility kinetic is 48.5 µg/mL (≈ 142 µM).

Which solubility kinetic does the source give for `COc1ccc(-c2c(C)nc(N)nc2-c2ccc(OC)cc2O)cc1` here?
The solubility kinetic was 7.4 µg/mL (≈ 21.9 µM).

Which solubility kinetic does the source give for `Cc1ccc(S(=O)(=O)c2nc(-c3ccccc3Cl)oc2N2CCN(C)CC2)cc1` here?
The solubility kinetic was 25.2 µg/mL (≈ 58.3 µM).

For `COC(=O)CSc1nc(Cc2ccccc2)nc2ccccc12`, which solubility kinetic is on record?
The solubility kinetic was 10.7 µg/mL (≈ 33 µM).

Which solubility kinetic does the source give for `O=C(O)C1C2C=CC(C2)C1C(=O)NCc1ccc(Cl)cc1Cl` (stereo not given) here?
The solubility kinetic was 45.3 µg/mL (≈ 133 µM).

For `COc1ccc(CNC(=O)CCSCc2ccc(C)cc2)cc1`, which solubility kinetic is on record?
The solubility kinetic was 16.5 µg/mL (≈ 50.1 µM).

Which solubility kinetic does the source give for `CCC(=O)N1C(=O)C2(Nc3ccccc3N2)c2ccccc21` here?
The solubility kinetic was greater than 44 µg/mL.

For `O=C(c1ccccc1)N(Cc1ccccc1)Cc1ccccc1`, which solubility kinetic is on record?
The solubility kinetic was 0.8 µg/mL (≈ 2.65 µM).

For `Cc1nc(SCC(=O)NC(=O)NC(C)C)nc(C)c1C`, which solubility kinetic is on record?
The solubility kinetic was greater than 44.5 µg/mL.

Which solubility kinetic does the source give for `Cc1ccc2c(CN3CCOCC3)cc(=O)oc2c1` here?
The solubility kinetic was greater than 38.9 µg/mL.

With `N=C(N=C(N)N)N1CCc2ccccc21` as the compound, how does the solubility kinetic read?
Its solubility kinetic is greater than 30.5 µg/mL.

Which solubility kinetic does the source give for `COc1ccccc1C(=O)NNC(=O)C(=O)NC(C)C` here?
The solubility kinetic was greater than 41.9 µg/mL.

With `Cc1onc(-c2ccccc2)c1NC(=O)N(CCC#N)Cc1ccccc1` as the compound, how does the solubility kinetic read?
The solubility kinetic was 45.4 µg/mL (≈ 126 µM).

Which solubility kinetic does the source give for `O=C1c2cccc3cccc(c23)C(=O)N1c1ccccn1` here?
The solubility kinetic was 40.4 µg/mL (≈ 147 µM).

With `CSc1cc(-c2ccncc2)nc(-c2ccc(Cl)cc2)c1` as the compound, how does the solubility kinetic read?
The solubility kinetic was less than 0.3 µg/mL.

For `Cn1c(/C(C#N)=C(\O)c2ccc([N+](=O)[O-])cc2)nc2ccccc21`, which solubility kinetic is on record?
The solubility kinetic was less than 0.2 µg/mL.

With `Cc1nc2ccccc2c2ncccc12` as the compound, how does the solubility kinetic read?
Its solubility kinetic is 22.4 µg/mL (≈ 115 µM).

With `CN1CCC(=C(c2ccccc2)c2ccc(Br)cc2)CC1.Cl` as the compound, how does the solubility kinetic read?
The solubility kinetic was 53.1 µg/mL.

For `O=C(C(Cl)c1ccccc1)N1CCOCC1` (stereo not given), which solubility kinetic is on record?
Its solubility kinetic is 33.5 µg/mL (≈ 140 µM).

Which solubility kinetic does the source give for `O=C(Cc1ccc(Cl)cc1)NCCCNC(=O)c1cccnc1` here?
Its solubility kinetic is 46.2 µg/mL (≈ 139 µM).

With `Cl.NS(=O)(=O)c1ccc(CCNC/C=C/c2ccccc2)cc1` as the compound, how does the solubility kinetic read?
Its solubility kinetic is greater than 52.9 µg/mL.

For `Nc1nc(SC23CC4CC(CC(C4)C2)C3)ns1`, which solubility kinetic is on record?
The solubility kinetic was less than 0.2 µg/mL.

For `CC(C)(C)c1ccc(C(=O)NCc2ccco2)cc1`, which solubility kinetic is on record?
Its solubility kinetic is 13.5 µg/mL (≈ 52.5 µM).

Which solubility kinetic does the source give for `O=S(=O)(Nc1cccc(F)c1)c1cccc2nsnc12` here?
Its solubility kinetic is greater than 46.4 µg/mL.

For `COc1ccc(CNC(=O)c2cc3c(=O)[nH]c4ccccc4c3n2C)cc1`, which solubility kinetic is on record?
Its solubility kinetic is less than 0.3 µg/mL.

With `COc1cccc(NS(=O)(=O)c2ccc3c(c2)CCN3C(C)=O)c1` as the compound, how does the solubility kinetic read?
The solubility kinetic was 3.3 µg/mL (≈ 9.53 µM).

Which solubility kinetic does the source give for `Cc1cccc2cc(C#N)c(N3CCC(O)CC3)nc12` here?
The solubility kinetic was 34.3 µg/mL (≈ 128 µM).
